US11434242B2, “Dopamine-b-hydroxylase inhibitors” (BIAL-PORTELA & Cª, S.A., priority 2017, dated 2022)
Where a name gives a salt, the structure may show the parent alone. Marks after values point to notes of the source that are not given here.

Molecular target: T1, Dopamine beta hydroxylase (Homo sapiens, UniProt P09172)
T1 construct: 125 μl of plasma; tissue Instituto Português do Sangue Transplantação; host or cells: human plasma from healthy donors
T1 sequence (P09172 40-617 limits assumed): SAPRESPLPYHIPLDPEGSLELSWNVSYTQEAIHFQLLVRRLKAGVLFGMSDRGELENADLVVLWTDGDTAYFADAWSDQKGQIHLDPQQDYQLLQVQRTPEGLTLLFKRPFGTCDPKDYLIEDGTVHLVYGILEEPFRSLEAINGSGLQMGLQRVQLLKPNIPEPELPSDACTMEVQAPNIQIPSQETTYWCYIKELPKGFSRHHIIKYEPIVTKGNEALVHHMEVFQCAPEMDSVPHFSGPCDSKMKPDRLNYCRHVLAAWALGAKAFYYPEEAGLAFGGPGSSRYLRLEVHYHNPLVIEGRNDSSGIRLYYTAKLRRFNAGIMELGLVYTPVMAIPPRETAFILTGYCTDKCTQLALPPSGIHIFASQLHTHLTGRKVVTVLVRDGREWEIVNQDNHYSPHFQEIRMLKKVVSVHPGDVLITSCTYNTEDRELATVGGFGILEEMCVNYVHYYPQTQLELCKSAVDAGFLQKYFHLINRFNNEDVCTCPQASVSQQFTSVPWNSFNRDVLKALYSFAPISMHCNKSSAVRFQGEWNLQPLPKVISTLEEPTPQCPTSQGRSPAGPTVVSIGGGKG
Assay: Dopamine beta hydroxylase activity in human plasma
Type: biochemical
Summary of the method: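 Octopamine production from tyramine over 45 min at 37° C, measured photometrically at 330 nm after SCX extraction and periodate oxidation against an octopamine standard curve, indicates plasma DβH activity. Compounds tested at final 10, 100 and 1000 nM in human plasma, pH 5.0 cofactor buffer, 10 min preincubation; results as % of control.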

| SMILES | Plasma (0.01 μM), activity in % of control (inhibitor 0.01 μM) | Plasma (0.1 μM), activity in % of control (inhibitor 0.1 μM) | Plasma (0.01 μM), activity in % of control, re-test (asterisked) (inhibitor 0.01 μM, re-tested under the same experimental conditions, asterisked data believed to be correct) | Plasma (0.1 μM), activity in % of control, re-test (asterisked) (inhibitor 0.1 μM, re-tested under the same experimental conditions, asterisked data believed to be correct) |
| --- | --- | --- | --- | --- |
| CNCCc1[nH]c(=S)n2c1C[C@@H](c1c(F)ccc(Cl)c1F)C2.Cl [Example 193, (S)-6-(3-chloro-2,6-difluorophenyl)-1-(2-(methylamino)ethyl)-2,5,6,7-tetrahydro-3H-pyrrolo[1,2-c]imidazole-3-thione Hydrochloride] | 86.0 % of control | 46.3 % of control | – | – |
| Cl.Fc1ccc(Cl)c(F)c1[C@@H]1Cc2c(CCN3CCOCC3)[nH]c(=S)n2C1 [Example 196, (S)-6-(3-chloro-2,6-difluorophenyl)-1-(2-morpholinoethyl)-2,5,6,7-tetrahydro-3H-pyrrolo[1,2-c]imidazole-3-thione Hydrochloride] | 102.2 % of control | 68.6 % of control | – | – |
| Cl.Fc1cc(F)c(F)c([C@H]2Cc3c(CCN4CCCC4)[nH]c(=S)n3C2)c1F [Example 198, (R)-1-(2-(pyrrolidin-1-yl)ethyl)-6-(2,3,5,6-tetrafluorophenyl)-2,5,6,7-tetrahydro-3H-pyrrolo[1,2-c]imidazole-3-thione Hydrochloride] | 52.2 % of control | 11.1 % of control | 84.5* % of control | 99.1* % of control |
| CCOC(=O)C(Cc1[nH]c(=S)n2c1C[C@H](c1c(F)c(F)cc(F)c1F)C2)C(=O)OCC [Example 200, (R)-diethyl 2-((6-(2,3,5,6-tetrafluorophenyl)-3-thioxo-3,5,6,7-tetrahydro-2H-pyrrolo[1,2-c]imidazol-1-yl)methyl)malonate] | 85.2 % of control | 66.4 % of control | – | – |
| O=C(O)C(Cc1[nH]c(=S)n2c1C[C@H](c1c(F)c(F)cc(F)c1F)C2)C(=O)O [Example 201, (R)-2-((6-(2,3,5,6-tetrafluorophenyl)-3-thioxo-2,5,6,7-tetrahydro-3H-pyrrolo[1,2-c]imidazol-1-yl)methyl)malonic Acid] | 62.4 % of control | 13.3 % of control | – | – |
| O=C(O)CCc1[nH]c(=S)n2c1C[C@H](c1c(F)c(F)cc(F)c1F)C2 [Example 202, (R)-3-(6-(2,3,5,6-tetrafluorophenyl)-3-thioxo-2,5,6,7-tetrahydro-3H-pyrrolo[1,2-c]imidazol-1-yl)propanoic Acid] | 67.7 % of control | 22.7 % of control | – | – |
| O=C(CCc1[nH]c(=S)n2c1C[C@H](c1c(F)c(F)cc(F)c1F)C2)NCC1CC1 [Example 203, (R)—N-(cyclopropylmethyl)-3-(6-(2,3,5,6-tetrafluorophenyl)-3-thioxo-2,5,6,7-tetrahydro-3H-pyrrolo[1,2-c]imidazol-1-yl)propanamide] | 95.8 % of control | 75.8 % of control | – | – |
| O=C(CCc1[nH]c(=S)n2c1C[C@H](c1c(F)c(F)cc(F)c1F)C2)N1CCCC1 [Example 204, (R)-1-(pyrrolidin-1-yl)-3-(6-(2,3,5,6-tetrafluorophenyl)-3-thioxo-2,5,6,7-tetrahydro-3H-pyrrolo[1,2-c]imidazol-1-yl)propan-1-one] | 26.5 % of control | 1.1 % of control | – | – |
| O=C(CCc1[nH]c(=S)n2c1C[C@H](c1c(F)c(F)cc(F)c1F)C2)N1CCOCC1 [Example 205, (R)-1-morpholino-3-(6-(2,3,5,6-tetrafluorophenyl)-3-thioxo-2,5,6,7-tetrahydro-3H-pyrrolo[1,2-c]imidazol-1-yl)propan-1-one] | 76.9 % of control | 18.2 % of control | – | – |
| O=C(CCc1[nH]c(=S)n2c1C[C@H](c1c(F)c(F)cc(F)c1F)C2)N1CCC(F)(F)CC1 [Example 206, (R)-1-(4,4-difluoropiperidin-1-yl)-3-(6-(2,3,5,6-tetrafluorophenyl)-3-thioxo-2,5,6,7-tetrahydro-3H-pyrrolo[1,2-c]imidazol-1-yl)propan-1-one] | 22.4 % of control | 8.7 % of control | – | – |
| O=C(CCc1[nH]c(=S)n2c1C[C@H](c1c(F)c(F)cc(F)c1F)C2)N1CCCCC1 [Example 207, (R)-1-(piperidin-1-yl)-3-(6-(2,3,5,6-tetrafluorophenyl)-3-thioxo-2,5,6,7-tetrahydro-3H-pyrrolo[1,2-c]imidazol-1-yl)propan-1-one] | 76.6 % of control | 30.2 % of control | – | – |
| CC1CCN(C(=O)CCc2[nH]c(=S)n3c2C[C@H](c2c(F)c(F)cc(F)c2F)C3)CC1 [Example 208, (R)-1-(4-methylpiperidin-1-yl)-3-(6-(2,3,5,6-tetrafluorophenyl)-3-thioxo-2,5,6,7-tetrahydro-3H-pyrrolo[1,2-c]imidazol-1-yl)propan-1-one] | 62.0 % of control | 13.3 % of control | – | – |
| Fc1cc(F)c(F)c([C@H]2Cc3c(CN4CCOCC4)[nH]c(=S)n3C2)c1F [Example 209, (R)-1-(morpholinomethyl)-6-(2,3,5,6-tetrafluorophenyl)-6,7-dihydro-2H-pyrrolo[1,2-c]imidazole-3(5H)-thione Hydrochloride] | 87.6 % of control | 60.3 % of control | – | – |
| Cl.Fc1cc(F)c(F)c([C@H]2Cc3c(CN4CCCC4)[nH]c(=S)n3C2)c1F [Example 210, (R)-1-(pyrrolidin-1-ylmethyl)-6-(2,3,5,6-tetrafluorophenyl)-2,5,6,7-tetrahydro-3H-pyrrolo[1,2-c]imidazole-3-thione hydrochloride] | 94.6 % of control | 73.5 % of control | – | – |

Continued, values first:

| Plasma (0.01 μM), activity in % of control (inhibitor 0.01 μM) | Plasma (0.1 μM), activity in % of control (inhibitor 0.1 μM) | Plasma (0.01 μM), activity in % of control, re-test (asterisked) (inhibitor 0.01 μM, re-tested under the same experimental conditions, asterisked data believed to be correct) | Plasma (0.1 μM), activity in % of control, re-test (asterisked) (inhibitor 0.1 μM, re-tested under the same experimental conditions, asterisked data believed to be correct) | SMILES |
| --- | --- | --- | --- | --- |
| 72.6 % of control | 21.6 % of control | – | – | F.Fc1ccc(Br)cc1[C@]12C[C@H]1c1c(CCNC3CC3)[nH]c(=S)n1C2 [Example 187, (5aS,6aR)-5a-(5-bromo-2-fluorophenyl)-1-(2-(cyclopropylamino)ethyl)-5,5a,6,6a-tetrahydrocyclopropa[3,4]pyrrolo[1,2-c]imidazole-3(2H)-thione hydrofluoride] |
| 60.9 % of control | 15.4 % of control | – | – | F.Fc1ccc(Br)cc1[C@]12C[C@H]1c1c(CCNC3CCC3)[nH]c(=S)n1C2 [Example 188, (5aS,6aR)-5a-(5-bromo-2-fluorophenyl)-1-(2-(cyclobutylamino)ethyl)-5,5a,6,6a-tetrahydrocyclopropa[3,4]pyrrolo[1,2-c]imidazole-3(2H)-thione hydrofluoride] |
| 87.4 % of control | 23.2 % of control | – | – | F.Fc1ccc(Cl)cc1[C@]12C[C@H]1c1c(CCNCc3ccccc3)[nH]c(=S)n1C2 [Example 189, (5aS,6aR)-1-(2-(benzylamino)ethyl)-5a-(5-chloro-2-fluorophenyl)-5,5a,6,6a-tetrahydrocyclopropa[3,4]pyrrolo[1,2-c]imidazole-3(2H)-thione hydrofluoride] |
| 68.6 % of control | 19.9 % of control | – | – | CN(CCc1[nH]c(=S)n2c1[C@@H]1C[C@]1(c1cc(Br)ccc1F)C2)C1CCCC1.F [Example 190, (5aS,6aR)-5a-(5-bromo-2-fluorophenyl)-1-(2-(cyclopentyl(methyl)amino)ethyl)-5,5a,6,6a-tetrahydrocyclopropa[3,4]pyrrolo[1,2-c]imidazole-3(2H)-thione hydrofluoride] |
| 73.4 % of control | 12.1 % of control | – | – | F.Fc1ccc(Br)cc1[C@]12C[C@H]1c1c(CCNc3ccccn3)[nH]c(=S)n1C2 [Example 192, (5aS,6aR)-5a-(5-bromo-2-fluorophenyl)-1-(2-(pyridin-2-ylamino)ethyl)-5,5a,6,6a-tetrahydrocyclopropa[3,4]pyrrolo[1,2-c]imidazole-3(2H)-thione hydrofluoride] |
| 82.9 % of control | 62.4 % of control | – | – | F.Fc1ccc(Cl)cc1[C@]12C[C@H]1c1c(CCN3CCCCC3)[nH]c(=S)n1C2 [Example 194, (5aS,6aR)-5a-(5-chloro-2-fluorophenyl)-1-(2-(piperidin-1-yl)ethyl)-5,5a,6,6a-tetrahydrocyclopropa[3,4]pyrrolo[1,2-c]imidazole-3(2H)-thione Hydrofluoride] |
| 75.9 % of control | 29.4 % of control | – | – | Fc1ccc(Cl)cc1[C@]12C[C@H]1c1c(CCNc3cccnc3)[nH]c(=S)n1C2 [Example 197, (5aS,6aR)-5a-(5-chloro-2-fluorophenyl)-1-(2-(pyridin-3-ylamino)ethyl)-5,5a,6,6a-tetrahydrocyclopropa[3,4]pyrrolo[1,2-c]imidazole-3(2H)-thione] |
